Data: publication PMC5421785, “Citrullination only infrequently impacts peptide binding to HLA class II MHC” (PLoS ONE, 2017)
Like-named read-outs stand apart in the source and are kept apart here. Square brackets hold non-standard residues; d marks the D form. Peptide text beside a SMILES is read from it. Cit = NC(=O)NCCC[C@H](N)C(=O)O

How the values were obtained:
[1] = target: T1, HLA-DRB1*01:01 (Homo sapiens, UniProt P01903+P01911, A100R/D57E/F55L/F60I/F76Y/I96L/L162R/M171V/P40L/Q125E/R42F/V115G/Y59C); assay: HLA class II peptide binding, inhibition of radiolabeled peptide binding to purified MHC; conditions: for IC50: read-out: DRB1*01:01 binding capacity, Cit peptide (IC50 nM); for DRB1*01:01 binding capacity, WT/cit ratio: ratio of WT IC50 to Cit IC50, >1 = citrullination increases binding
T1 construct: EBV transformed homozygous cell lines were used as sources of MHC molecules; endogenous in cells; host or cells: EBV transformed homozygous cell lines

[2] = target: T2, HLA-DRB1*04:01 (Homo sapiens, UniProt P01903+P01911, A100K/A169T/F76Y/I96L/K127E/L162R/M171V/N62H/P40V/Q125Y/R42H/S133A/S149N/S66Y/V115G/V209L/W38E); assay: as above; conditions: for IC50: read-out: DRB1*04:01 binding capacity, Cit peptide (IC50 nM); for DRB1*04:01 binding capacity, WT/cit ratio: ratio of WT IC50 to Cit IC50, >1 = citrullination increases binding
T2 construct: EBV transformed homozygous cell lines were used as sources of MHC molecules; endogenous in cells; host or cells: EBV transformed homozygous cell lines

[3] = citrullinated 15-mer (X), purified MHC, inhibition of radiolabeled peptide binding, dash = IC50 >40,000 nM
[4] = citrullinated 15-mer peptide (X = citrulline), purified HLA-DRB1*01:01
[5] = citrullinated 15-mer peptide (X = citrulline), purified HLA-DRB1*04:01

| IC50 [1, 3] [nM] | IC50 [2, 3] [nM] | IC50 [1, 4] [nM] | DRB1*01:01 binding capacity, WT/cit ratio [1] | IC50 [2, 5] [nM] | DRB1*04:01 binding capacity, WT/cit ratio [2] | SMILES |
| --- | --- | --- | --- | --- | --- | --- |
| 9330 | 1140 |  |  |  |  | CC(C)C[C@H](NC(=O)[C@H](CCC(=O)O)NC(=O)[C@H](CCC(N)=O)NC(=O)[C@H](CC(C)C)NC(=O)[C@H](CCC(=O)O)NC(=O)[C@@H](NC(=O)[C@H](CCCCN)NC(=O)[C@H](CCC(=O)O)NC(=O)[C@H](CC(N)=O)NC(=O)[C@@H](NC(=O)[C@H](CCCNC(N)=O)NC(=O)[C@@H](NC(=O)[C@H](CC(N)=O)NC(=O)[C@H](CCCCN)NC(=O)[C@@H](N)Cc1ccccc1)[C@@H](C)O)[C@@H](C)O)C(C)C)C(=O)O [FKNTXTNEKVELQEL] (H-FKNT[Cit]TNEKVELQEL-OH) |
| 3940 | 279 |  |  |  |  | CC(C)C[C@H](NC(=O)[C@H](CC(=O)O)NC(=O)[C@H](CC(C)C)NC(=O)[C@H](CCCNC(N)=O)NC(=O)[C@H](C)NC(=O)[C@H](CC(C)C)NC(=O)[C@H](CO)NC(=O)[C@H](C)NC(=O)[C@H](CC(N)=O)NC(=O)[C@H](CC(=O)O)NC(=O)[C@@H](NC(=O)[C@H](CC(=O)O)NC(=O)[C@H](CCC(N)=O)NC(=O)[C@H](CCCNC(=N)N)NC(=O)[C@@H](N)Cc1ccccc1)C(C)C)C(=O)O [FRQDVDNASLAXLDL] (H-FRQDVDNASLA[Cit]LDL-OH) |
| 41 | 22600 |  |  |  |  | CC[C@H](C)[C@H](NC(=O)[C@H](C)NC(=O)[C@H](CC(=O)O)NC(=O)[C@H](C)NC(=O)[C@H](CC(C)C)NC(=O)[C@H](CO)NC(=O)[C@@H](N)Cc1ccccc1)C(=O)N[C@@H](CC(N)=O)C(=O)N[C@H](C(=O)N[C@@H](CCC(=O)O)C(=O)N[C@@H](Cc1ccccc1)C(=O)N[C@@H](CCCCN)C(=O)N[C@@H](CC(N)=O)C(=O)N[C@H](C(=O)N[C@@H](CCCNC(N)=O)C(=O)O)[C@@H](C)O)[C@@H](C)O [FSLADAINTEFKNTX] (H-FSLADAINTEFKNT[Cit]-OH) |
| 7990 | 280 |  |  |  |  | CC(C)C[C@H](NC(=O)[C@H](CC(=O)O)NC(=O)[C@H](CC(C)C)NC(=O)[C@H](CCCNC(=N)N)NC(=O)[C@H](C)NC(=O)[C@H](CC(C)C)NC(=O)[C@H](CO)NC(=O)[C@H](C)NC(=O)[C@H](CC(N)=O)NC(=O)[C@H](CC(=O)O)NC(=O)[C@@H](NC(=O)[C@H](CC(=O)O)NC(=O)[C@H](CCC(N)=O)NC(=O)[C@H](CCCNC(N)=O)NC(=O)[C@@H](N)Cc1ccccc1)C(C)C)C(=O)O [FXQDVDNASLARLDL] (H-F[Cit]QDVDNASLARLDL-OH) |
|  |  | > 40000 | 1.0 | > 40000 | 1.0 | CC(C)[C@H](NC(=O)CNC(=O)[C@H](C)NC(=O)[C@H](C)NC(=O)CNC(=O)[C@H](CC(=O)O)NC(=O)[C@H](CCCNC(N)=O)NC(=O)CNC(=O)[C@@H]1CCCN1C(=O)[C@@H]1CCCN1C(=O)CNC(=O)[C@H](CC(=O)O)NC(=O)[C@H](C)NC(=O)CN)C(=O)N[C@@H](CCCCN)C(=O)O [GADGPPGXDGAAGVK] (H-GADGPPG[Cit]DGAAGVK-OH; N-terminus and C-terminus assumed) |
|  |  | > 40000 | 1.0 | > 40000 | 1.0 | CC(C)C[C@H](NC(=O)CNC(=O)[C@H](CCC(N)=O)NC(=O)[C@@H]1CCCN1C(=O)CNC(=O)[C@@H]1CCCN1C(=O)[C@@H]1CCCN1C(=O)CNC(=O)[C@H](CCC(=O)O)NC(=O)[C@H](C)NC(=O)CN)C(=O)N[C@@H](C)C(=O)NCC(=O)N[C@@H](CCC(N)=O)C(=O)N[C@@H](CCCNC(N)=O)C(=O)O [GAEGPPGPQGLAGQX] (H-GAEGPPGPQGLAGQ[Cit]-OH; N-terminus and C-terminus assumed) |
|  |  | 578 |  | > 40000 |  | CC(C)C[C@H](NC(=O)CNC(=O)[C@H](CCC(N)=O)NC(=O)[C@H](C)NC(=O)CN)C(=O)N[C@@H](CCC(N)=O)C(=O)NCC(=O)N1CCC[C@H]1C(=O)N[C@@H](CCCNC(N)=O)C(=O)NCC(=O)N[C@@H](CC(C)C)C(=O)N1CCC[C@H]1C(=O)NCC(=O)N[C@H](C(=O)N1CCC[C@H]1C(=O)O)[C@@H](C)O [GAQGLQGPXGLPGTP] (H-GAQGLQGP[Cit]GLPGTP-OH) |
|  |  | > 40000 | 0.2 | > 40000 | 1.0 | CSCC[C@H](NC(=O)[C@@H]1CCCN1C(=O)CNC(=O)[C@H](CCC(N)=O)NC(=O)[C@H](C)NC(=O)CNC(=O)[C@H](C)NC(=O)[C@H](CCC(=O)O)NC(=O)CNC(=O)[C@H](CCCNC(N)=O)NC(=O)[C@H](CC(=O)O)NC(=O)CN)C(=O)NCC(=O)N1CCC[C@H]1C(=O)N[C@@H](CO)C(=O)O [GDXGEAGAQGPMGPS] (H-GD[Cit]GEAGAQGPMGPS-OH; N-terminus and C-terminus assumed) |
